Data from PubChem BioAssay (NCI).
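Method: 48-hour compound exposure of cells in 96-well plates, five concentrations, linear interpolation of endpoints. The concentration for 50% growth inhibition is given as GI50. TGI: concentration producing complete growth inhibition.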

Assays:
Assay in all cases: NCI-60 cell line screen, 48 h
786-0 renal = tested on: 786-0 renal
A498 renal = tested on: A498 renal
A549 NSCLC = tested on: A549 NSCLC
ACHN renal = tested on: ACHN renal
BT-549 breast = tested on: BT-549 breast
CAKI-1 renal = tested on: CAKI-1 renal
CCRF-CEM leukemia = tested on: CCRF-CEM leukemia
COLO 205 colon = tested on: COLO 205 colon
DU-145 prostate = tested on: DU-145 prostate
EKVX NSCLC = tested on: EKVX NSCLC
HCT-116 colon = tested on: HCT-116 colon
HCT-15 colon = tested on: HCT-15 colon
HL-60(TB) leukemia = tested on: HL-60(TB) leukemia
HOP-62 NSCLC = tested on: HOP-62 NSCLC
HOP-92 NSCLC = tested on: HOP-92 NSCLC
HS 578T breast = tested on: HS 578T breast
HT29 colon = tested on: HT29 colon
IGROV1 ovarian = tested on: IGROV1 ovarian
K-562 leukemia = tested on: K-562 leukemia
KM12 colon = tested on: KM12 colon
LOX IMVI melanoma = tested on: LOX IMVI melanoma
M14 melanoma = tested on: M14 melanoma
MALME-3M melanoma = tested on: MALME-3M melanoma
MCF7 breast = tested on: MCF7 breast
MDA-MB-231 breast = tested on: MDA-MB-231 breast
MDA-MB-435 = tested on: MDA-MB-435
MOLT-4 leukemia = tested on: MOLT-4 leukemia
NCI-H226 lung = tested on: NCI-H226 lung

SMILES: O=C1c2ccccc2-c2c1c1c(NCCCO)nc3ccccc3c1n2Cc1ccccc1
- GI50 (786-0 renal): 21.3 µM
- TGI (786-0 renal): 43.7 µM
- GI50 (A498 renal): 21.6 µM
- TGI (A498 renal): 48.6 µM
- GI50 (A549 NSCLC): 29.7 µM
- TGI (A549 NSCLC): 75.5 µM
- GI50 (ACHN renal): 21.4 µM
- TGI (ACHN renal): 59.4 µM
- GI50 (BT-549 breast): 21.1 µM
- TGI (BT-549 breast): 43.7 µM
- GI50 (CAKI-1 renal): 18.6 µM
- TGI (CAKI-1 renal): 38.4 µM
- GI50 (CCRF-CEM leukemia): 17.6 µM
- TGI (CCRF-CEM leukemia): 45.9 µM
- GI50 (COLO 205 colon): 34.2 µM
- TGI (COLO 205 colon): > 100 µM
- GI50 (DU-145 prostate): 16.3 µM
- TGI (DU-145 prostate): 34.1 µM
- GI50 (EKVX NSCLC): 27.5 µM
- TGI (EKVX NSCLC): 64.4 µM
- GI50 (HCT-116 colon): 15.8 µM
- TGI (HCT-116 colon): 35.1 µM
- GI50 (HCT-15 colon): 37.5 µM
- TGI (HCT-15 colon): > 100 µM
- GI50 (HL-60(TB) leukemia): 12 µM
- TGI (HL-60(TB) leukemia): 25.7 µM
- GI50 (HOP-62 NSCLC): 19.3 µM
- TGI (HOP-62 NSCLC): 35.7 µM
- GI50 (HOP-92 NSCLC): 12.3 µM
- TGI (HOP-92 NSCLC): 27.6 µM
- GI50 (HS 578T breast): 40.6 µM
- TGI (HS 578T breast): > 100 µM
- GI50 (HT29 colon): 17.1 µM
- TGI (HT29 colon): 30.8 µM
- GI50 (IGROV1 ovarian): 48.6 µM
- TGI (IGROV1 ovarian): > 100 µM
- GI50 (K-562 leukemia): 15.5 µM
- TGI (K-562 leukemia): 28.8 µM
- GI50 (KM12 colon): 31.3 µM
- TGI (KM12 colon): > 100 µM
- GI50 (LOX IMVI melanoma): 15.9 µM
- TGI (LOX IMVI melanoma): 30.9 µM
- GI50 (M14 melanoma): 26.8 µM
- TGI (M14 melanoma): 58.2 µM
- GI50 (MALME-3M melanoma): 19 µM
- TGI (MALME-3M melanoma): 38.2 µM
- GI50 (MCF7 breast): 17.2 µM
- TGI (MCF7 breast): 31 µM
- GI50 (MDA-MB-231 breast): 20.7 µM
- TGI (MDA-MB-231 breast): 42.7 µM
- GI50 (MDA-MB-435): 36 µM
- TGI (MDA-MB-435): > 100 µM
- GI50 (MOLT-4 leukemia): 5.94 µM
- TGI (MOLT-4 leukemia): 42.8 µM
- GI50 (NCI-H226 lung): 41.3 µM
- TGI (NCI-H226 lung): > 100 µM
